From patent US9113629B2, “4-amino-6-(4-substituted-phenyl)-picolinates and 6-amino-2-(4-substituted-phenyl)-pyrimidine-4-carboxylates and their use as herbicides” (DOW AGROSCIENCES LLC, priority 2013, dated 2015)
Read-outs that look alike come from different tables or passages of the source.

What was measured:
[1] = system: Key Broadleaf Weed and Crop Species; assay: Post-emergent Test II herbicidal activity (Table 5); format: in vivo; details: post-emergence, 336 h, 14 days after application; for pest or weed control at 70 g/ha: application rate 70 g ai/ha; for pest or weed control at 140 g/ha: application rate 140 g ai/ha
Outline: (§1)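 Post-emergence foliar spray, 187 L/ha, track sprayer at 43 cm above canopy. Carrier: acetone/water/IPA/DMSO/Atplus 411F/Triton X-155. Plants at 1st–2nd true leaf; subirrigated afterwards; % injury scored visually at 14 d.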

[2] = system: Key Grass and Sedge Weeds as well as Grass Crops; assay: Post-emergent Test II herbicidal activity (Table 6); format: in vivo; details: post-emergence, 336 h
Outline: as §1

[3] = ABUTH: velvetleaf (Abutilon theophrasti), read-out: Visual Growth Reduction (%) 14 Days After Application, ABUTH
[4] = AMARE: redroot pigweed (Amaranthus retroflexus), read-out: Visual Growth Reduction (%) 14 Days After Application, AMARE
[5] = BRSNN: oilseed-rape, canola (Brassica napus), read-out: Visual Growth Reduction (%) 14 Days After Application, BRSNN
[6] = CHEAL: lambsquarters (Chenopodium album), read-out: Visual Growth Reduction (%) 14 Days After Application, CHEAL
[7] = EPHHL: wild poinsettia (Euphorbia heterophylla), read-out: Visual Growth Reduction (%) 14 Days After Application, EPHHL
[8] = HELAN: sunflower (Helianthus annuus), read-out: Visual Growth Reduction (%) 14 Days After Application, HELAN
[9] = VIOTR: wild pansy (Viola tricolor), read-out: Visual Growth Reduction (%) 14 Days After Application, VIOTR

Nc1c(F)c(-c2ccc(Br)cc2F)nc(C(=O)O)c1Cl [Compound 163]
85 to 94%: pest or weed control at 70 g/ha [1, 3] | pest or weed control at 140 g/ha [1, 3] | pest or weed control at 140 g/ha ([2]; DIGSA: crabgrass (Digitaria sanguinalis), 140 g ai/ha, read-out: Visual Growth Reduction (%) 14 Days After Application, DIGSA) | pest or weed control at 70 g/ha ([2]; ECHCG: barnyardgrass (Echinochloa crus-galli), 70 g ai/ha, read-out: Visual Growth Reduction (%) 14 Days After Application, ECHCG) | pest or weed control at 140 g/ha ([2]; ECHCG: barnyardgrass (Echinochloa crus-galli), 140 g ai/ha, read-out: Visual Growth Reduction (%) 14 Days After Application, ECHCG) | pest or weed control at 70 g/ha ([2]; SETFA: giant foxtail (Setaria faberi), 70 g ai/ha, read-out: Visual Growth Reduction (%) 14 Days After Application, SETFA) | pest or weed control at 70 g/ha ([2]; SORVU: grain sorghum (Sorghum vulgare), 70 g ai/ha, read-out: Visual Growth Reduction (%) 14 Days After Application, SORVU) | pest or weed control at 140 g/ha ([2]; SORVU: grain sorghum (Sorghum vulgare), 140 g ai/ha, read-out: Visual Growth Reduction (%) 14 Days After Application, SORVU)
95 to 100%: pest or weed control at 70 g/ha [1, 4] | pest or weed control at 140 g/ha [1, 4] | pest or weed control at 70 g/ha [1, 5] | pest or weed control at 140 g/ha [1, 5] | pest or weed control at 70 g/ha [1, 6] | pest or weed control at 140 g/ha [1, 6] | pest or weed control at 70 g/ha [1, 7] | pest or weed control at 140 g/ha [1, 7] | pest or weed control at 70 g/ha [1, 8] | pest or weed control at 140 g/ha [1, 8] | pest or weed control at 70 g/ha [1, 9] | pest or weed control at 140 g/ha [1, 9] | pest or weed control at 70 g/ha ([2]; CYPES: yellow nutsedge (Cyperus esculentus), 70 g ai/ha, read-out: Visual Growth Reduction (%) 14 Days After Application, CYPES) | pest or weed control at 140 g/ha ([2]; CYPES: yellow nutsedge (Cyperus esculentus), 140 g ai/ha, read-out: Visual Growth Reduction (%) 14 Days After Application, CYPES) | pest or weed control at 140 g/ha ([2]; SETFA: giant foxtail (Setaria faberi), 140 g ai/ha, read-out: Visual Growth Reduction (%) 14 Days After Application, SETFA)
75 to 84%: pest or weed control at 70 g/ha ([2]; DIGSA: crabgrass (Digitaria sanguinalis), 70 g ai/ha, read-out: Visual Growth Reduction (%) 14 Days After Application, DIGSA)
45 to 59%: pest or weed control at 70 g/ha ([2]; ZEAMX: maize, corn (Zea mays), crop, 70 g ai/ha, read-out: Visual Growth Reduction (%) 14 Days After Application, ZEAMX)
162 to 164 °C: melting point
60 to 74%: pest or weed control at 70 g/ha ([2]; TRZSS (wheat, Triticum aestivum), crop, 70 g ai/ha, read-out: Visual Growth Reduction (%) 14 Days After Application, TRZSS) | pest or weed control at 140 g/ha ([2]; TRZSS (wheat, Triticum aestivum), crop, 140 g ai/ha, read-out: Visual Growth Reduction (%) 14 Days After Application, TRZSS) | pest or weed control at 140 g/ha ([2]; ZEAMX: maize, corn (Zea mays), crop, 140 g ai/ha, read-out: Visual Growth Reduction (%) 14 Days After Application, ZEAMX)
0 to 29%: pest or weed control at 70 g/ha ([2]; ORYSA: rice (Oryza sativa), crop, 70 g ai/ha, read-out: Visual Growth Reduction (%) 14 Days After Application, ORYSA) | pest or weed control at 140 g/ha ([2]; ORYSA: rice (Oryza sativa), crop, 140 g ai/ha, read-out: Visual Growth Reduction (%) 14 Days After Application, ORYSA)

COc1c(N)nc(-c2ccc(Br)c(F)c2F)nc1C(=O)O [Compound 8]
95 to 100%: pest or weed control at 70 g/ha [1, 3] | pest or weed control at 140 g/ha [1, 3] | pest or weed control at 70 g/ha [1, 4] | pest or weed control at 140 g/ha [1, 4] | pest or weed control at 70 g/ha [1, 5] | pest or weed control at 140 g/ha [1, 5] | pest or weed control at 70 g/ha [1, 6] | pest or weed control at 140 g/ha [1, 6] | pest or weed control at 70 g/ha [1, 7] | pest or weed control at 140 g/ha [1, 7] | pest or weed control at 70 g/ha [1, 8] | pest or weed control at 140 g/ha [1, 8] | pest or weed control at 70 g/ha [1, 9] | pest or weed control at 140 g/ha [1, 9] | pest or weed control at 70 g/ha ([2]; CYPES: yellow nutsedge (Cyperus esculentus), application rate 70 g ai/ha, read-out: Visual Growth Reduction (%) 14 Days After Application, CYPES) | pest or weed control at 140 g/ha ([2]; CYPES: yellow nutsedge (Cyperus esculentus), application rate 140 g ai/ha, read-out: Visual Growth Reduction (%) 14 Days After Application, CYPES) | pest or weed control at 140 g/ha ([2]; SETFA: giant foxtail (Setaria faberi), application rate 140 g ai/ha, read-out: Visual Growth Reduction (%) 14 Days After Application, SETFA) | pest or weed control at 70 g/ha ([2]; SORVU: grain sorghum (Sorghum vulgare), application rate 70 g ai/ha, read-out: Visual Growth Reduction (%) 14 Days After Application, SORVU) | pest or weed control at 140 g/ha ([2]; SORVU: grain sorghum (Sorghum vulgare), application rate 140 g ai/ha, read-out: Visual Growth Reduction (%) 14 Days After Application, SORVU)
85 to 94%: pest or weed control at 140 g/ha ([2]; DIGSA: crabgrass (Digitaria sanguinalis), application rate 140 g ai/ha, read-out: Visual Growth Reduction (%) 14 Days After Application, DIGSA) | pest or weed control at 70 g/ha ([2]; ECHCG: barnyardgrass (Echinochloa crus-galli), application rate 70 g ai/ha, read-out: Visual Growth Reduction (%) 14 Days After Application, ECHCG) | pest or weed control at 140 g/ha ([2]; ECHCG: barnyardgrass (Echinochloa crus-galli), application rate 140 g ai/ha, read-out: Visual Growth Reduction (%) 14 Days After Application, ECHCG) | pest or weed control at 140 g/ha ([2]; ZEAMX: maize, corn (Zea mays), application rate 140 g ai/ha, read-out: Visual Growth Reduction (%) 14 Days After Application, ZEAMX)
75 to 84%: pest or weed control at 140 g/ha ([2]; Triticum aestivum, TRZSS (wheat), application rate 140 g ai/ha, read-out: Visual Growth Reduction (%) 14 Days After Application, TRZSS) | pest or weed control at 70 g/ha ([2]; DIGSA: crabgrass (Digitaria sanguinalis), application rate 70 g ai/ha, read-out: Visual Growth Reduction (%) 14 Days After Application, DIGSA) | pest or weed control at 70 g/ha ([2]; SETFA: giant foxtail (Setaria faberi), application rate 70 g ai/ha, read-out: Visual Growth Reduction (%) 14 Days After Application, SETFA)
60 to 74%: pest or weed control at 70 g/ha ([2]; Triticum aestivum, TRZSS (wheat), application rate 70 g ai/ha, read-out: Visual Growth Reduction (%) 14 Days After Application, TRZSS) | pest or weed control at 70 g/ha ([2]; ZEAMX: maize, corn (Zea mays), application rate 70 g ai/ha, read-out: Visual Growth Reduction (%) 14 Days After Application, ZEAMX)
45 to 59%: pest or weed control at 140 g/ha ([2]; ORYSA: rice (Oryza sativa), application rate 140 g ai/ha, read-out: Visual Growth Reduction (%) 14 Days After Application, ORYSA)
30 to 44%: pest or weed control at 70 g/ha ([2]; ORYSA: rice (Oryza sativa), application rate 70 g ai/ha, read-out: Visual Growth Reduction (%) 14 Days After Application, ORYSA)
126 to 128 °C (dec.): melting point
